Literature values in publication PMC7904233 (Journal of medicinal chemistry, 2020).

System: EBOV Zaire
Conditions: in vivo; cited from earlier work

CN(C)CCOc1ccc(/C(=C(/CCCl)c2ccccc2)c2ccccc2)cc1 [Compound 1, Toremifene]
mouse survival: 50%

CCN(CC)CCOc1ccc(C(=C(Cl)c2ccccc2)c2ccccc2)cc1 [clomiphene]
mouse survival: 90%
